Test results: patent US8993542B2, “Methods of treating viral infections” (priority 2008, dated 2015)

Experiments:
Type in all cases: cell-based
HIV-1IIIB [1] = experiment: Two-drug combination antiviral assay in CEM cells (CPE), MacSynergy II; details: for Antagonism Volume, Result 1 / Antagonism Volume, Result 2 / Antagonism Volume, Result 3 / Mean Antagonism Volume (n = 3) / Mean Synergy Volume (n = 3) / Synergy Volume, Result 1 / Synergy Volume, Result 2 / Synergy Volume, Result 3: in combination with CMX157, CEM-SS cells, 95% confidence
HIV-1IIIB [2] = experiment: TCID50 determination of drug-treated HIV-1IIIB; set-up: TCID50, XTT Endpoint / TCID50, RT Endpoint / TCID50, P24 Endpoint: unit not given here
HIV = experiment: microbe, parasite or virus in culture
[3] = virus treated 15 minutes with 0.039 nM drug
[4] = virus treated 15 minutes with 0.125 nM drug
[5] = virus treated 15 minutes with 0.39 nM drug
[6] = virus treated 15 minutes with 1.25 nM drug
[7] = virus treated 15 minutes with 3.9 nM drug
[8] = virus treated 15 minutes with 12.5 nM drug
[9] = virus treated 15 minutes with 39.1 nM drug
[10] = virus treated 15 minutes with 125 nM drug

## Cc1ccnc2c1NC(=O)c1cccnc1N2C1CC1 [Nevirapine (NVP), nevirapine]
HIV-1IIIB [1]
  Antagonism Volume, Result 1: 0 nM^2 %, μM^2 % or nMμM %
  Antagonism Volume, Result 2: 0 nM^2 %, μM^2 % or nMμM %
  Antagonism Volume, Result 3: 0/0 nM^2 %, μM^2 % or nMμM %
  Mean Antagonism Volume (n = 3): 0 nM^2 %, μM^2 % or nMμM %
  Mean Synergy Volume (n = 3): 38.5 nM^2 %, μM^2 % or nMμM %
  Synergy Volume, Result 1: 74.1 nM^2 %, μM^2 % or nMμM %
  Synergy Volume, Result 2: 41.5 nM^2 %, μM^2 % or nMμM %
  Synergy Volume, Result 3: 0/0 nM^2 %, μM^2 % or nMμM %

## CC(C)Nc1cccnc1N1CCN(C(=O)c2cc3cc(NS(C)(=O)=O)ccc3[nH]2)CC1 [Delavirdine (DLV), delavirdine]
HIV-1IIIB [1]
  Antagonism Volume, Result 1: 0 nM^2 %, μM^2 % or nMμM %
  Antagonism Volume, Result 2: 0 nM^2 %, μM^2 % or nMμM %
  Antagonism Volume, Result 3: −2.58 nM^2 %, μM^2 % or nMμM %
  Mean Antagonism Volume (n = 3): 0 nM^2 %, μM^2 % or nMμM %
  Mean Synergy Volume (n = 3): 72.9 nM^2 %, μM^2 % or nMμM %
  Synergy Volume, Result 1: 152 nM^2 %, μM^2 % or nMμM %
  Synergy Volume, Result 2: 68.4 nM^2 %, μM^2 % or nMμM %
  Synergy Volume, Result 3: 1.01 nM^2 %, μM^2 % or nMμM %
HIV-1IIIB [1]; two-drug combination (with CMX157; control d4T/RBV), CEM-SS cells
  Interpretation of Antiviral Results (MacSynergy): slightly synergistic

## CCCCCCCCCCCCCCCCOCCCOP(=O)(O)OCCOCn1cnc2c(=O)[nH]c(N)nc21 [HDP-ACV]
HIV-1IIIB [2]; 15 minutes, 0.039 to 125 nM
  effect on infectious virus: no effect
HIV-1IIIB [2]; [3]
  Fold Decrease From VC, P24 Endpoint: (0) Fold
  Fold Decrease From VC, RT Endpoint: (1.2) Fold
  Fold Decrease From VC, XTT Endpoint: (0) Fold
  TCID50, P24 Endpoint: 30411
  TCID50, RT Endpoint: 132749
  TCID50, XTT Endpoint: 18115
HIV-1IIIB [2]; [4]
  Fold Decrease From VC, P24 Endpoint: (0) Fold
  Fold Decrease From VC, RT Endpoint: (1.6) Fold
  Fold Decrease From VC, XTT Endpoint: (1.1) Fold
  TCID50, P24 Endpoint: 36277
  TCID50, RT Endpoint: 102336
  TCID50, XTT Endpoint: 16145
HIV-1IIIB [2]; [5]
  Fold Decrease From VC, P24 Endpoint: (0) Fold
  Fold Decrease From VC, RT Endpoint: (1.1) Fold
  Fold Decrease From VC, XTT Endpoint: (0) Fold
  TCID50, P24 Endpoint: 30411
  TCID50, RT Endpoint: 144887
  TCID50, XTT Endpoint: 20325
HIV-1IIIB [2]; [6]
  Fold Decrease From VC, P24 Endpoint: (1.4) Fold
  Fold Decrease From VC, RT Endpoint: (1.6) Fold
  Fold Decrease From VC, XTT Endpoint: (1.1) Fold
  TCID50, P24 Endpoint: 21529
  TCID50, RT Endpoint: 102336
  TCID50, XTT Endpoint: 16145
HIV-1IIIB [2]; [7]
  Fold Decrease From VC, P24 Endpoint: (0) Fold
  Fold Decrease From VC, RT Endpoint: (1.6) Fold
  Fold Decrease From VC, XTT Endpoint: (0) Fold
  TCID50, P24 Endpoint: 30411
  TCID50, RT Endpoint: 102336
  TCID50, XTT Endpoint: 20325
HIV-1IIIB [2]; [8]
  Fold Decrease From VC, P24 Endpoint: (0) Fold
  Fold Decrease From VC, RT Endpoint: (1.1) Fold
  Fold Decrease From VC, XTT Endpoint: (0) Fold
  TCID50, P24 Endpoint: 36227
  TCID50, RT Endpoint: 144887
  TCID50, XTT Endpoint: 18115
HIV-1IIIB [2]; [9]
  Fold Decrease From VC, P24 Endpoint: (0) Fold
  Fold Decrease From VC, RT Endpoint: (0) Fold
  Fold Decrease From VC, XTT Endpoint: (1.1) Fold
  TCID50, P24 Endpoint: 30411
  TCID50, RT Endpoint: 204659
  TCID50, XTT Endpoint: 16145
HIV-1IIIB [2]; [10]
  Fold Decrease From VC, P24 Endpoint: (1.4) Fold
  Fold Decrease From VC, RT Endpoint: (0) Fold
  Fold Decrease From VC, XTT Endpoint: (0) Fold
  TCID50, P24 Endpoint: 21529
  TCID50, RT Endpoint: 162566
  TCID50, XTT Endpoint: 18115

## Cc1nnc(C(=O)NC(C)(C)c2nc(C(=O)NCc3ccc(F)cc3)c(O)c(=O)n2C)o1 [Raltegravir (RAL), raltegravir]
HIV-1IIIB [1]
  Antagonism Volume, Result 1: 0 nM^2 %, μM^2 % or nMμM %
  Antagonism Volume, Result 2: 0 nM^2 %, μM^2 % or nMμM %
  Antagonism Volume, Result 3: 0 nM^2 %, μM^2 % or nMμM %
  Mean Antagonism Volume (n = 3): 0 nM^2 %, μM^2 % or nMμM %
  Mean Synergy Volume (n = 3): 34.3 nM^2 %, μM^2 % or nMμM %
  Synergy Volume, Result 1: 18.4 nM^2 %, μM^2 % or nMμM %
  Synergy Volume, Result 2: 1.92 nM^2 %, μM^2 % or nMμM %
  Synergy Volume, Result 3: 82.6 nM^2 %, μM^2 % or nMμM %

## Nc1ccn([C@@H]2CS[C@H](CO)O2)c(=O)n1 [3TC, (2R, 5S, cis)-4-amino-1-(2-hydroxymethyl-1,3-oxathiolan-5-yl)-(1H)-pyrimidin-2-one]
HIV; Human immunodeficiency virus 1, PANEL 1, WT
  IC50: 3.24 µM
HIV; Human immunodeficiency virus 1, PANEL 2, WT
  IC50: 4.44 µM
HIV; Human immunodeficiency virus 1, PANEL 3, 6 TAMs, no 184
  IC50: 13.9 µM
HIV; Human immunodeficiency virus 1, PANEL 6, 6 TAMs + 184
  IC50: > 300 µM
HIV; Human immunodeficiency virus 1, PANEL 7, 184V
  IC50: > 300 µM
HIV; Human immunodeficiency virus 1, PANEL 9, 69ins, no 184
  IC50: 45.9 µM
HIV; Human immunodeficiency virus 1, PANEL 12, 69ins + 184
  IC50: > 300 µM
HIV; Human immunodeficiency virus 1, PANEL 14, 65R, no 184
  IC50: 70.8 µM
HIV; Human immunodeficiency virus 1, PANEL 15, 65R + 184V
  IC50: > 300 µM
HIV; Human immunodeficiency virus 1, PANEL 17, L74V
  IC50: 6.98 µM
HIV; Human immunodeficiency virus 1, PANEL 19, L74V + M184V
  IC50: > 300 µM
HIV; Human immunodeficiency virus 1, PANEL 26, 151M, no 184
  IC50: 89.6 µM
HIV; Human immunodeficiency virus 1, PANEL 28, 151M + 184
  IC50: > 300 µM
HIV; Human immunodeficiency virus 1, PANEL 29, L74V − SDM
  IC50: 6.1 µM
HIV; Human immunodeficiency virus 1, PANEL 30, M184V − SDM
  IC50: > 300 µM
HIV; Human immunodeficiency virus 1, PANEL 31, K65R − SDM
  IC50: 43.3 µM
HIV; Human immunodeficiency virus 1, PANEL 33, T215Y
  IC50: 6.12 µM
HIV; Human immunodeficiency virus 1, PANEL 34, T215Y + M184V
  IC50: > 300 µM
HIV; Human immunodeficiency virus 1, PANEL 35, M41L + T215Y
  IC50: 7.55 µM
HIV; Human immunodeficiency virus 1, PANEL 37, M41L + T215Y + M184V
  IC50: > 300 µM
HIV; Human immunodeficiency virus 1, PANEL 38, M41L + L210W + T215Y
  IC50: 10.3 µM
HIV; Human immunodeficiency virus 1, PANEL 39, M41L + L210W + T215Y
  IC50: 5.89 µM
HIV; Human immunodeficiency virus 1, PANEL 40, M41L + L210W + T215Y + M184V
  IC50: > 300 µM
HIV; Human immunodeficiency virus 1, PANEL 41, M41L + L210W + T215Y + M184V
  IC50: > 300 µM
HIV; Human immunodeficiency virus 1, PANEL 42, D67N + K70R
  IC50: 8.07 µM
HIV; Human immunodeficiency virus 1, PANEL 44, D67N + K70R + T215F + K219E + M184V
  IC50: > 300 µM
HIV; Human immunodeficiency virus 1, PANEL 45, L210W + T215Y
  IC50: 7.26 µM
HIV; Human immunodeficiency virus 1, PANEL 46, D67N + K70E
  IC50: 10.8 µM
HIV; Human immunodeficiency virus 1, PANEL 47, D67N + K70E + M184V
  IC50: > 300 µM
HIV; Human immunodeficiency virus 1, PANEL 48, K70E + M184V
  IC50: > 300 µM
